Reference: ChEMBL document CHEMBL5331072, “Development of potent and selective FAAH inhibitors with improved drug-like properties as potential tools to treat neuroinflammatory conditions” (Eur J Med Chem, 2023)
Converted amounts (≈) assume the structure as drawn. The source made the active and inactive calls. The calls are words filed in the database; no cut-off is given here.

What was measured:
[1] = Chemical stability of the compound at pH 7.4 measured for 24 hrs by HPLC analysis; assay type: physicochemical; conditions: buffer, read-out: Stability
[2] = Solubility of compound at pH 7.4 measured for 24 hrs; assay type: physicochemical; conditions: buffer
Hippocampus [3] = assay: Neuroprotective activity against Wistar rat Hippocampus assessed as reduction in LPS/IFN-gamma induced PI uptake in CA1 region at 0.1 to 10 uM measured for 96 hrs; assay type: functional, tissue-based; conditions: dose 0.1-10 µM
[4] = target: T1, Fatty-acid amide hydrolase 1 (Homo sapiens, UniProt O00519); assay: Inhibition of human recombinant FAAH using AMC-AA as substrate preincubated for 30 mins followed by substrate addition and measured after 30 mins by multimode plate reader analysis
T1 sequence (O00519 whole entry): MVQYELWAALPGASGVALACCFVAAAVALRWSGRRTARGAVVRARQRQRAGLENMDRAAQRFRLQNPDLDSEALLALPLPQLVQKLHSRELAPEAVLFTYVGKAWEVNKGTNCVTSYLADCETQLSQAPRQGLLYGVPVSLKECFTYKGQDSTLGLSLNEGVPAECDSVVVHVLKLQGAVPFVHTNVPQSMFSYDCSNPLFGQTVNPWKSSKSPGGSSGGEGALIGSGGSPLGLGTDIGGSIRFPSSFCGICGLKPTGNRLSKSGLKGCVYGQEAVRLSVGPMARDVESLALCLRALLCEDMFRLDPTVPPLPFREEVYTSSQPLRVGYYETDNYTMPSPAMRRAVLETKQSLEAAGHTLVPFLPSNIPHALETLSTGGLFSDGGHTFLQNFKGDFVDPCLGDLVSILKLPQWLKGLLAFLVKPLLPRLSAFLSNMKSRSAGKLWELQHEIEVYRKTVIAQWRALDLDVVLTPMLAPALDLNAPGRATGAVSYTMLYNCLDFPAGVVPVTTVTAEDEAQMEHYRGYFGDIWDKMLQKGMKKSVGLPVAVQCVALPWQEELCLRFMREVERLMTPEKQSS

[5] = Cytotoxicity against mouse NIH3T3 cells assessed as inhibition of cell growth measured for 24 hrs by neutral red uptake assay; assay type: toxicity, cell-based
[6] = Chemical stability of the compound at pH 3 measured for 24 hrs by HPLC analysis; assay type: physicochemical; conditions: buffer, read-out: Stability
Hippocampus [7] = assay: Neuroprotective activity against Wistar rat Hippocampus assessed as reduction in LPS/IFN-gamma induced PI uptake in CA1 region measured for 96 hrs; assay type: functional, tissue-based
1321N1 [8] = assay: Cytotoxicity against human 1321N1 cells assessed as inhibition of cell growth at 10 nM measured for 24 hrs by MTT assay; assay type: functional; set-up: scale not given: the % may be the effect or the level left
1321N1 [9] = assay: Cytotoxicity against human 1321N1 cells assessed as inhibition of cell growth at 1 uM measured for 24 hrs by MTT assay; assay type: functional; set-up: scale not given: the % may be the effect or the level left
1321N1 [10] = assay: Antiinflammatory activity against human 1321N1 cells assessed as reduction in TBHP-induced ROS production at 10 nM incubated for 24 hrs by CellROX green reagent based flow cytometry assay; assay type: functional, cell-based
1321N1 [11] = assay: Cytotoxicity against human 1321N1 cells assessed as inhibition of cell growth at 30 uM measured for 24 hrs by MTT assay; assay type: functional; set-up: scale not given: the % may be the effect or the level left
1321N1 [12] = assay: Cytotoxicity against human 1321N1 cells assessed as inhibition of cell growth at 10 uM measured for 24 hrs by MTT assay; assay type: functional; set-up: scale not given: the % may be the effect or the level left
Monoglyceride lipase = target: T2, Monoglyceride lipase (Homo sapiens, UniProt Q99685); assay: Inhibition of human recombinant MAGL using 7-hydroxycoumarinyl arachidonate as substrate preincubated for 30 mins followed by substrate addition and measured after 30 mins by multimode plate reader analysis
T2 sequence (Q99685 whole entry): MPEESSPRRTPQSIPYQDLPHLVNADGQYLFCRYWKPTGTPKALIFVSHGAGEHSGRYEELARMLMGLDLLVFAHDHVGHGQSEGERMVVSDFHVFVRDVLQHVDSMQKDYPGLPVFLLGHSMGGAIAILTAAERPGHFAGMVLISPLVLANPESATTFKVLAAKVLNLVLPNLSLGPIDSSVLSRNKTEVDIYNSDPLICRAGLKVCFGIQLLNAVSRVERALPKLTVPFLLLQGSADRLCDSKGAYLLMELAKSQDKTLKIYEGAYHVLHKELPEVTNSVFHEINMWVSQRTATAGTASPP

1321N1 [13] = assay: Cytotoxicity against human 1321N1 cells assessed as inhibition of cell growth at 100 nM measured for 24 hrs by MTT assay; assay type: functional; set-up: scale not given: the % may be the effect or the level left
[14] = Neurotoxicity against Wistar rat Hippocampus assessed as cell survival at 0.3 to 100 nM measured for 96 hrs by densitometric analysis; assay type: toxicity, tissue-based; conditions: 0.1 µM, dose 0.3-100 nM
1321N1 [15] = assay: Antiinflammatory activity against human 1321N1 cells assessed as reduction in TBHP-induced ROS production at 1 uM incubated for 24 hrs by CellROX green reagent based flow cytometry assay; assay type: functional, cell-based
[16] = target: T3, Fatty-acid amide hydrolase 1 (Homo sapiens) (UniProt O00519); assay: Reversible inhibition of human recombinant FAAH at 10 to 100 nM using AMC-AA as substrate preincubated for 30 mins followed by substrate addition and measured after 30 mins by rapid dilution method; conditions: dose 10-100 nM, time 1.0 hrs
T3 sequence (whole entry): T1 sequence (O00519 whole entry)

Hippocampus [17] = assay: Neuroprotective activity against Wistar rat Hippocampus assessed as reduction in LPS/IFN-gamma induced PI uptake in CA1 region at 0.3 to 100 nM measured for 96 hrs; assay type: functional; set-up: scale not given: the % may be the effect or the level left; conditions: dose 0.3-100 nM
[18] = Solubility of compound at pH 3 measured for 24 hrs; assay type: physicochemical; conditions: buffer
[19] = Dissociation constant, pKa of the compound; assay type: physicochemical
Hippocampus [20] = assay: Neuroprotective activity against Wistar rat Hippocampus assessed as reduction in LPS/IFN-gamma induced PI uptake in CA1 region at 3 to 100 nM measured for 96 hrs; assay type: functional, tissue-based; conditions: dose 3-100 nM
[21] = Solubility of compound at pH 3 measured for 12 hrs; assay type: physicochemical; conditions: buffer
[22] = Solubility of compound at pH 7.4 measured for 12 hrs; assay type: physicochemical; conditions: buffer

Row | Structure (SMILES) | remaining at 24 h [1] [%] | solubility at 24 h [2] [µM] | IC50 [4] [nM] | remaining at 24 h [6] [%] | IC50 (Monoglyceride lipase) [nM] | solubility at 24 h [18] [µM] | other results
1 | O=C(NCCCCCCc1ccccc1)Oc1cccc(-c2nn[nH]n2)c1 | > 99 | 108 (≈ 39.5 µg/mL) | 7.54 | < 1 | 8400 | – | Activity (Hippocampus [3]): Active; IC50 at 24 h [5]: 39000 nM; Activity (Hippocampus [7]): Dose-Dependent Effect; Activity (1321N1 [8]): 100.8%; Activity (1321N1 [9]): 98.8%; Activity (1321N1 [10]): Active; Activity (1321N1 [11]): 97%; Activity (1321N1 [12]): 99.8%; Activity (1321N1 [13]): 98.5%; Activity [14]: Non-Toxic; Activity (1321N1 [15]): Active
2 | Cc1cc(C(N)=O)c(-c2cccc(OC(=O)NC3CCN(CCc4ccccc4)CC3)c2)s1 | – | – | 194 | – | > 10000 | – | –
3 | CN(C(=O)Oc1cccc(-n2ccc(C(N)=O)c2)c1)C1CCN(CCc2ccccc2)CC1 | – | – | > 10000 | – | > 10000 | – | –
4 | NC(=O)c1cccc(-c2cccc(OC(=O)NC3CCCCC3)c2)c1 [URB-597] | – | – | – | – | 9380 | – | inhibition [16]: inactive
5 | NC(=O)c1cn(-c2cccc(OC(=O)NCCCCCCc3ccccc3)c2)nn1 | 79 | – | 15.8 | 63 | 479 | – | IC50 at 24 h [5]: 35000 nM
6 | Cc1cc(C(N)=O)c(-c2cccc(OC(=O)N3CCN(CCCc4ccccc4)CC3)c2)o1 | > 99 | < 1 | 8.29 | 98 | 5060 | 168 (≈ 75.2 µg/mL) | inhibition [16]: Active; Activity (Hippocampus [17]): 70%; IC50 at 24 h [5]: 6400 nM; EC50 (Hippocampus [7]): 2.91 nM; Activity (1321N1 [8]): 99.3%; Activity (1321N1 [9]): 100%; Activity (1321N1 [10]): Active; Activity (1321N1 [11]): 96%; pKa [19]: 8.5; Activity (1321N1 [12]): 101%; Activity (1321N1 [13]): 97%; Activity [14]: Non-Toxic; Activity (1321N1 [15]): Active
7 | NC(=O)c1cn(-c2cccc(OC(=O)N3CCN(CCCc4ccccc4)CC3)c2)nn1 | > 99 | 38 (≈ 16.5 µg/mL) | 47.4 | > 99 | 2900 | 298 (≈ 129 µg/mL) | –
8 | Cc1cc(C(N)=O)c(-c2cccc(OC(=O)N(C)C3CCN(CCc4ccccc4)CC3)c2)s1 | – | – | 8450 | – | > 10000 | – | –
9 | Cc1cc(C(N)=O)c(-c2cccc(OC(=O)NCCCCCCN3CCN(C)CC3)c2)o1 | – | – | 1040 | – | > 10000 | – | –
10 | Cc1cc(C(N)=O)c(-c2cccc(OC(=O)N3CCC(CCCc4ccccc4)CC3)c2)o1 | – | – | 11.7 | – | 4120 | – | –
11 | NC(=O)c1ccn(-c2cccc(OC(=O)NCCCCCCc3ccccc3)c2)c1 | 38 | – | 3.72 | 32 | – | 3 (≈ 1.22 µg/mL) | –
12 | O=C(Oc1cccc(-c2nn[nH]n2)c1)N1CCN(CCCc2ccccc2)CC1 | > 99 | 272 (≈ 107 µg/mL) | 253 | > 99 | > 10000 | 268 (≈ 105 µg/mL) | –
13 | Cc1cc(C(=O)O)c(-c2cccc(OC(=O)NCCCCCCc3ccccc3)c2)o1 | 92.7 | 172 (≈ 72.5 µg/mL) | 10.5 | < 1 | 2440 | – | –
14 | Cc1cc(C(N)=O)c(-c2cccc(OC(=O)N3CCC(NCCc4ccccc4)CC3)c2)o1 | > 99 | 206 (≈ 92.2 µg/mL) | 26.3 | > 99 | > 10000 | 277 (≈ 124 µg/mL) | Activity (Hippocampus [20]): Active; inhibition [16]: Active; Activity (Hippocampus [17]): Active; IC50 at 24 h [5]: 45000 nM; pKa [19]: 7.6; Activity [14]: Non-Toxic
15 | Cc1cc(C(N)=O)c(-c2cccc(OC(=O)N3CCN(CCCc4ccccc4)CC3)c2)s1 | – | – | 15.6 | – | > 10000 | – | –
16 | Cc1cc(C(N)=O)c(-c2cccc(OC(=O)N(C)C3CCN(CCc4ccccc4)CC3)c2)o1 | – | – | 6560 | – | > 10000 | – | –
17 | Cc1cc(C(=O)O)c(-c2cccc(OC(=O)N3CCN(CCCc4ccccc4)CC3)c2)o1 | 97 | 259 (≈ 116 µg/mL) | 128 | > 99 | > 10000 | 249 (≈ 112 µg/mL) | –
18 | Cc1cc(C(N)=O)c(-c2cccc(OC(=O)NC3CCN(CCCc4ccccc4)CC3)c2)o1 | – | – | 407 | – | > 10000 | – | –
19 | NC(=O)c1ccn(-c2cccc(OC(=O)NC3CCN(CCc4ccccc4)CC3)c2)c1 | – | – | 315 | – | > 10000 | – | –
20 | Cc1cc(C(N)=O)c(-c2cccc(OC(=O)NCCCCCCc3ccccc3)c2)o1 | 9 | – | – | 31 | – | – | solubility at 12 h [21]: < 1 µM; IC50 at 24 h [5]: 19200 nM; solubility at 12 h [22]: < 1 µM
21 | Cc1cc(C(N)=O)c(-c2cccc(OC(=O)N3CCC(NCCCc4ccccc4)CC3)c2)o1 | > 99 | 322 (≈ 149 µg/mL) | 165 | > 99 | 9880 | 353 (≈ 163 µg/mL) | –
22 | Cc1cc(C(N)=O)c(-c2cccc(OC(=O)NC3CCN(CCc4ccccc4)CC3)c2)o1 | > 99 | 67 (≈ 30 µg/mL) | 188 | 96 | > 10000 | 282 (≈ 126 µg/mL) | –
